Strand notation (5' to 3'): a small letter for the sugar, then the base; units joined by * are phosphorothioate-linked, units joined directly phosphodiester-linked; [ ] holds rarer units or linkages, { } end groups; capitals alone tell only the bases. d = 2'-deoxy (DNA)
Key:
mouse splenocytes = experiment: Mouse splenocyte cytokine secretion (IL-6, IL-12, IFN by ELISA); type: cell-based, BALB/c mice; design: IFN: unit not given beside the values; settings: 24 h
Experimental: Polynucleotides and chimeric compounds were tested for immunostimulatory activity on mouse splenocytes. Immunostimulation was assessed by measurement of cytokine secretion into the culture media. Cytokine levels in the culture supernatant were determined by enzyme-linked immunosorbent assay (ELISA) tests.
Cells were isolated and prepared using standard techniques. Spleens of 8 to 20 week-old BALB/c mice were harvested and the splenocytes isolated using standard teasing and treatment with ACK lysing buffer from BioWhittaker, Inc. Four spleens were pooled in this experiment. Isolated cells were washed in RPMI 1640 media supplemented with 2% heat-inactivated fetal calf serum (FCS), 50 μM 2-mercaptoethanol, 1% penicillin-streptomycin, and 2 mM L-glutamine and resuspended at approximately […] in 10% FCS/RPMI (RPMI 1640 media with 10% heat-inactivated FCS, 50 μM 2-mercaptoethanol, 1% penicillin-streptomycin, and 2 mM L-glutamine).
Cell cultures were set up in triplicate with approximately 7×10^5 cells/well in a 96-well flat microtiter plate in 100 μl 10% FCS/RPMI with the cells allowed to rest for at lest 1 hour after plating. The indicated test compounds were incubated (at the indicated concentrations) for 24 hours at 37° C. Cell supernatants were harvested and frozen at −80° C. Cytokine production by the cells was determined by ELISAs, as shown in 19.

CD19+ B cells = experiment: Human B cell proliferation assay (3H-thymidine incorporation); settings: 2 μg/ml; for cpm1 / cpm2 / cpm3 / mean cpm / mean of both: B cells
mice = experiment: Serum cytokines (IL-12 p40, IL-6, TNF-α) after subcutaneous injection in mice; type: in vivo; settings: 20 ug subcutaneous, blood 2 hours later
In short: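 Blood was taken 2 h after subcutaneous injection. LPS positive-control mice were dosed intraperitoneally and bled at 1.5 h, at the peak of TNF-α. Sera were stored at −80° C and TNF-α, IL-6 and IL-12 were measured by immunoassay kits or antibody pairs in duplicate.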

PBMCs = experiment: Human PBMC proliferation assay (3H-thymidine incorporation); type: cell-based; settings: Experiment A; for mean cpm: 2 μg/ml

**Q.** How did the IFN (mouse splenocytes; dose 1.0 μg/ml) turn out when “5′-TGACTGTGAACCTTAGAGATGA-3′ (SEQ ID NO: 3) (dT*dG*dA*dC*dT*dG*dT*dG*dA*dA*dC*dC*dT*dT*dA*dG*dA*dG*dA*dT*dG*dA) [Compound P-7, negative control, reference compound]” was run?
**A.** 30

**Q.** What about the IL-6 (mouse splenocytes; dose 1.0 μg/ml) of the same substance?
**A.** 7

**Q.** What about the IL-12 (mouse splenocytes; dose 1.0 μg/ml) of the same substance?
**A.** 143

**Q.** What about the IFN (mouse splenocytes; dose 5.0 μg/ml) of the same substance?
**A.** 23

**Q.** And the IL-6 (mouse splenocytes; dose 5.0 μg/ml)?
**A.** 9

**Q.** And the IL-12 (mouse splenocytes; dose 5.0 μg/ml)?
**A.** 177

**Q.** What about the “B cell proliferation, in words” value (CD19+ B cells; 48 h plus 8 h 3H-thymidine pulse) of the same substance?
**A.** little to no B cell proliferation

**Q.** And the cpm1 (CD19+ B cells; Donor 146, Experiment A)?
**A.** 4858 cpm

**Q.** And the cpm2 (CD19+ B cells; Donor 146, Experiment A)?
**A.** 5810 cpm

**Q.** What about the cpm3 (CD19+ B cells; Donor 146, Experiment A) of the same substance?
**A.** 7079 cpm

**Q.** And the mean cpm (CD19+ B cells; Donor 146 mean, Experiment A)?
**A.** 5916 cpm

**Q.** And the cpm1 (CD19+ B cells; Donor 147, Experiment A)?
**A.** 4364 cpm

**Q.** And the cpm2 (CD19+ B cells; Donor 147, Experiment A)?
**A.** 4066 cpm

**Q.** And the cpm3 (CD19+ B cells; Donor 147, Experiment A)?
**A.** 2774 cpm

**Q.** And the mean cpm (CD19+ B cells; Donor 147 mean, Experiment A)?
**A.** 3735 cpm

**Q.** And the cpm1 (CD19+ B cells; donor 121, Experiment B)?
**A.** 1623 cpm

**Q.** What about the cpm2 (CD19+ B cells; donor 121, Experiment B) of the same substance?
**A.** 1821 cpm

**Q.** What about the cpm3 (CD19+ B cells; donor 121, Experiment B) of the same substance?
**A.** 2901 cpm

**Q.** And the mean cpm (CD19+ B cells; donor 121 mean, Experiment B)?
**A.** 2115 cpm

**Q.** And the cpm1 (CD19+ B cells; donor 194, Experiment B)?
**A.** 1992 cpm

**Q.** And the cpm2 (CD19+ B cells; donor 194, Experiment B)?
**A.** 1593 cpm

**Q.** And the cpm3 (CD19+ B cells; donor 194, Experiment B)?
**A.** 1686 cpm

**Q.** And the mean cpm (CD19+ B cells; donor 194 mean, Experiment B)?
**A.** 1757 cpm

**Q.** What about the mean of both (CD19+ B cells; mean of Donors 146 and 147, Experiment A) of the same substance?
**A.** 4825 cpm

**Q.** What about the mean of both (CD19+ B cells; mean of donors 121 and 194, Experiment B) of the same substance?
**A.** 1936 cpm

**Q.** And the “induction of serum IL-12 p40, IL-6 and TNF-α, in words” value (mice)?
**A.** inactive

**Q.** What about the cpm1 (PBMCs; Donor 146, 2 μg/ml) of the same substance?
**A.** 7620 cpm

**Q.** What about the cpm2 (PBMCs; Donor 146, 2 μg/ml) of the same substance?
**A.** 8362 cpm

**Q.** And the cpm3 (PBMCs; Donor 146, 2 μg/ml)?
**A.** 9686 cpm

**Q.** And the mean cpm (PBMCs; Donor 146 mean)?
**A.** 8556 cpm

**Q.** What about the cpm1 (PBMCs; Donor 147, 2 μg/ml) of the same substance?
**A.** 9783 cpm

**Q.** What about the cpm2 (PBMCs; Donor 147, 2 μg/ml) of the same substance?
**A.** 9841 cpm

**Q.** What about the cpm3 (PBMCs; Donor 147, 2 μg/ml) of the same substance?
**A.** 10476 cpm

**Q.** What about the mean cpm (PBMCs; Donor 147 mean) of the same substance?
**A.** 10033 cpm

**Q.** And the mean of both (PBMCs; mean of Donors 146 and 147, 2 μg/ml)?
**A.** 9295 cpm

— patent US9028845B2, “Chimeric immunomodulatory compounds and methods of using the same-IV” (Dynavax Technologies Corporation, priority 2001, dated 2015)
